Values of other authors in paper PMC9610285 (Pharmaceutics, 2022).

System: MAO-B
Design: method as in earlier work
Details: main metabolite of rasagiline; cited from earlier work

Compound: NC1CCc2ccccc21 (stereo not shown) [S1-1-aminoindane]
- MAO-B inhibition: not a MAO-B inhibitor
